Assay results as given in PubChem BioAssay (NCI).
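Step 1: Grow cells in 96-well plates. Step 2: Expose to compound for 48 hours at 5 concentrations. Step 3: Interpolate endpoints linearly; if unreached, use highest concentration. Definition used: TGI = concentration required for complete inhibition of growth.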

Assays:
Test in all cases: NCI anticancer screen, dose series, 48 h
NCI-H522 lung = tested on: NCI-H522 lung
OVCAR-5 ovarian = tested on: OVCAR-5 ovarian
HOP-92 NSCLC = tested on: HOP-92 NSCLC
UACC-62 melanoma = tested on: UACC-62 melanoma
TK-10 renal = tested on: TK-10 renal
U251 CNS = tested on: U251 CNS
SNB-19 CNS = tested on: SNB-19 CNS
MDA-MB-231 breast = tested on: MDA-MB-231 breast
KM20L2 colon = tested on: KM20L2 colon
K-562 leukemia = tested on: K-562 leukemia
OVCAR-8 ovarian = tested on: OVCAR-8 ovarian
SK-MEL-5 melanoma = tested on: SK-MEL-5 melanoma
SF-295 CNS = tested on: SF-295 CNS
LOX IMVI melanoma = tested on: LOX IMVI melanoma
PC-3 prostate = tested on: PC-3 prostate
SNB-75 CNS = tested on: SNB-75 CNS
MDA-MB-435 = tested on: MDA-MB-435
HT29 colon = tested on: HT29 colon
NCI-H23 lung = tested on: NCI-H23 lung
LXFL 529 NSCLC = tested on: LXFL 529 NSCLC
KM12 colon = tested on: KM12 colon
COLO 205 colon = tested on: COLO 205 colon
UO-31 renal = tested on: UO-31 renal
RXF 393 renal = tested on: RXF 393 renal
SN12C renal = tested on: SN12C renal
NCI-H460 lung = tested on: NCI-H460 lung
T-47D breast = tested on: T-47D breast
A498 renal = tested on: A498 renal
UACC-257 melanoma = tested on: UACC-257 melanoma
MCF7 breast = tested on: MCF7 breast
SK-MEL-2 melanoma = tested on: SK-MEL-2 melanoma
DMS 273 small cell lung = tested on: DMS 273 small cell lung
OVCAR-3 ovarian = tested on: OVCAR-3 ovarian
MALME-3M melanoma = tested on: MALME-3M melanoma
RXF-631 renal = tested on: RXF-631 renal
BT-549 breast = tested on: BT-549 breast
RPMI-8226 leukemia = tested on: RPMI-8226 leukemia
MDA-N = tested on: MDA-N
OVCAR-4 ovarian = tested on: OVCAR-4 ovarian
CCRF-CEM leukemia = tested on: CCRF-CEM leukemia
HOP-18 NSCLC = tested on: HOP-18 NSCLC
A549 NSCLC = tested on: A549 NSCLC
DLD-1 colon = tested on: DLD-1 colon
SF-539 CNS = tested on: SF-539 CNS
NCI/ADR-RES ovarian = tested on: NCI/ADR-RES ovarian
CAKI-1 renal = tested on: CAKI-1 renal
SR leukemia = tested on: SR leukemia
DU-145 prostate = tested on: DU-145 prostate
M14 melanoma = tested on: M14 melanoma
HL-60(TB) leukemia = tested on: HL-60(TB) leukemia
SNB-78 CNS = tested on: SNB-78 CNS
786-0 renal = tested on: 786-0 renal
EKVX NSCLC = tested on: EKVX NSCLC
MOLT-4 leukemia = tested on: MOLT-4 leukemia
HS 578T breast = tested on: HS 578T breast
HCC-2998 colon = tested on: HCC-2998 colon
SK-OV-3 ovarian = tested on: SK-OV-3 ovarian
M19-MEL melanoma = tested on: M19-MEL melanoma
HCT-116 colon = tested on: HCT-116 colon
SW-620 colon = tested on: SW-620 colon
HCT-15 colon = tested on: HCT-15 colon
HOP-62 NSCLC = tested on: HOP-62 NSCLC
IGROV1 ovarian = tested on: IGROV1 ovarian
NCI-H226 lung = tested on: NCI-H226 lung
ACHN renal = tested on: ACHN renal
SK-MEL-28 melanoma = tested on: SK-MEL-28 melanoma
SF-268 CNS = tested on: SF-268 CNS
XF 498 CNS = tested on: XF 498 CNS
DMS 114 small cell lung = tested on: DMS 114 small cell lung

## C=CCc1cc(-c2cc(CC=C)c(O)c(CN(CCCl)CCCl)c2)cc(CN(CCCl)CCCl)c1O
NCI-H522 lung
  TGI: 27.3 µM
OVCAR-5 ovarian
  TGI: 35.4 µM
HOP-92 NSCLC
  TGI: 32.2 µM
UACC-62 melanoma
  TGI: 28.9 µM
TK-10 renal
  TGI: 38.8 µM
U251 CNS
  TGI: 24.8 µM
SNB-19 CNS
  TGI: 51.8 µM
MDA-MB-231 breast
  TGI: 45.2 µM
KM20L2 colon
  TGI: 35.4 µM
K-562 leukemia
  TGI: > 100 µM
OVCAR-8 ovarian
  TGI: 74.1 µM
SK-MEL-5 melanoma
  TGI: 32.7 µM
SF-295 CNS
  TGI: 38.7 µM
LOX IMVI melanoma
  TGI: > 80.8 µM
PC-3 prostate
  TGI: 25.8 µM
SNB-75 CNS
  TGI: 58.6 µM
MDA-MB-435
  TGI: 31.1 µM
HT29 colon
  TGI: 33.3 µM
NCI-H23 lung
  TGI: 22.1 µM
LXFL 529 NSCLC
  TGI: 29.7 µM
KM12 colon
  TGI: 36.7 µM
COLO 205 colon
  TGI: 43.4 µM
UO-31 renal
  TGI: 32.1 µM
RXF 393 renal
  TGI: 35.8 µM
SN12C renal
  TGI: 27.7 µM
NCI-H460 lung
  TGI: 29.1 µM
T-47D breast
  TGI: 24.8 µM
A498 renal
  TGI: 40.5 µM
UACC-257 melanoma
  TGI: 33.7 µM
MCF7 breast
  TGI: 42.7 µM
SK-MEL-2 melanoma
  TGI: 40.6 µM
DMS 273 small cell lung
  TGI: 30.3 µM
OVCAR-3 ovarian
  TGI: 36.2 µM
MALME-3M melanoma
  TGI: 42.6 µM
RXF-631 renal
  TGI: 39.3 µM
BT-549 breast
  TGI: 66.9 µM
RPMI-8226 leukemia
  TGI: > 100 µM
MDA-N
  TGI: 35 µM
OVCAR-4 ovarian
  TGI: 52.6 µM
CCRF-CEM leukemia
  TGI: > 100 µM
HOP-18 NSCLC
  TGI: 67 µM
A549 NSCLC
  TGI: 45.3 µM
DLD-1 colon
  TGI: 36.2 µM
SF-539 CNS
  TGI: 36.3 µM
NCI/ADR-RES ovarian
  TGI: 78.4 µM
CAKI-1 renal
  TGI: 34.6 µM
SR leukemia
  TGI: > 100 µM
DU-145 prostate
  TGI: 30.8 µM
M14 melanoma
  TGI: 38.3 µM
HL-60(TB) leukemia
  TGI: > 100 µM
SNB-78 CNS
  TGI: > 100 µM
786-0 renal
  TGI: 37.9 µM
EKVX NSCLC
  TGI: 22.5 µM
MOLT-4 leukemia
  TGI: > 100 µM
HS 578T breast
  TGI: > 100 µM
HCC-2998 colon
  TGI: 29.2 µM
SK-OV-3 ovarian
  TGI: 46.9 µM
M19-MEL melanoma
  TGI: 34.7 µM
HCT-116 colon
  TGI: 25.3 µM
SW-620 colon
  TGI: 27.7 µM
HCT-15 colon
  TGI: 38 µM
HOP-62 NSCLC
  TGI: 43.5 µM
IGROV1 ovarian
  TGI: 38.9 µM
NCI-H226 lung
  TGI: 33.5 µM
ACHN renal
  TGI: 21.9 µM
SK-MEL-28 melanoma
  TGI: 40.2 µM
SF-268 CNS
  TGI: 47.8 µM

## COc1ccc(C(=O)C(c2ccc(OC)cc2)C2(O)C(=O)Nc3ccccc32)cc1 (centres undefined)
NCI-H522 lung
  TGI: > 100 µM
HOP-92 NSCLC
  TGI: > 100 µM
UACC-62 melanoma
  TGI: > 100 µM
TK-10 renal
  TGI: > 100 µM
U251 CNS
  TGI: > 100 µM
SNB-19 CNS
  TGI: > 100 µM
KM20L2 colon
  TGI: > 100 µM
K-562 leukemia
  TGI: > 100 µM
SF-295 CNS
  TGI: > 100 µM
XF 498 CNS
  TGI: > 100 µM
LOX IMVI melanoma
  TGI: > 100 µM
SNB-75 CNS
  TGI: > 100 µM
HT29 colon
  TGI: > 100 µM
NCI-H23 lung
  TGI: > 100 µM
LXFL 529 NSCLC
  TGI: > 100 µM
KM12 colon
  TGI: > 100 µM
UO-31 renal
  TGI: > 100 µM
SN12C renal
  TGI: > 100 µM
UACC-257 melanoma
  TGI: > 100 µM
SK-MEL-2 melanoma
  TGI: > 100 µM
DMS 273 small cell lung
  TGI: > 100 µM
OVCAR-3 ovarian
  TGI: > 100 µM
MALME-3M melanoma
  TGI: > 100 µM
RXF-631 renal
  TGI: > 100 µM
RPMI-8226 leukemia
  TGI: > 100 µM
CCRF-CEM leukemia
  TGI: > 100 µM
A549 NSCLC
  TGI: > 100 µM
DLD-1 colon
  TGI: > 100 µM
SF-539 CNS
  TGI: > 100 µM
CAKI-1 renal
  TGI: > 100 µM
SR leukemia
  TGI: > 100 µM
M14 melanoma
  TGI: > 100 µM
HL-60(TB) leukemia
  TGI: > 100 µM
SNB-78 CNS
  TGI: > 100 µM
786-0 renal
  TGI: > 100 µM
EKVX NSCLC
  TGI: > 100 µM
MOLT-4 leukemia
  TGI: > 100 µM
SK-OV-3 ovarian
  TGI: > 100 µM
M19-MEL melanoma
  TGI: > 100 µM
HCT-116 colon
  TGI: > 100 µM
SW-620 colon
  TGI: > 100 µM
HCT-15 colon
  TGI: > 100 µM
IGROV1 ovarian
  TGI: > 100 µM
NCI-H226 lung
  TGI: > 100 µM
ACHN renal
  TGI: > 100 µM
SK-MEL-28 melanoma
  TGI: > 100 µM
SF-268 CNS
  TGI: > 100 µM

## COC(=O)C1=C(O)c2cc(OC)c(OC)c(OC)c2[C@H](c2cc(OC)c(OC)c(OC)c2)C1C(=O)OC (some centres undefined)
NCI-H522 lung
  TGI: 43.5 µM
OVCAR-5 ovarian
  TGI: > 100 µM
HOP-92 NSCLC
  TGI: 69.3 µM
UACC-62 melanoma
  TGI: 76 µM
TK-10 renal
  TGI: > 100 µM
U251 CNS
  TGI: > 100 µM
SNB-19 CNS
  TGI: > 100 µM
KM20L2 colon
  TGI: 37.5 µM
K-562 leukemia
  TGI: 86.1 µM
OVCAR-8 ovarian
  TGI: > 100 µM
SK-MEL-5 melanoma
  TGI: > 100 µM
SF-295 CNS
  TGI: 98.1 µM
XF 498 CNS
  TGI: > 100 µM
LOX IMVI melanoma
  TGI: > 100 µM
DMS 114 small cell lung
  TGI: 87.7 µM
SNB-75 CNS
  TGI: > 100 µM
HT29 colon
  TGI: 61.6 µM
NCI-H23 lung
  TGI: > 100 µM
LXFL 529 NSCLC
  TGI: > 100 µM
KM12 colon
  TGI: > 100 µM
COLO 205 colon
  TGI: 37.9 µM
UO-31 renal
  TGI: > 100 µM
RXF 393 renal
  TGI: 59.5 µM
SN12C renal
  TGI: > 100 µM
NCI-H460 lung
  TGI: > 100 µM
A498 renal
  TGI: > 100 µM
UACC-257 melanoma
  TGI: > 100 µM
DMS 273 small cell lung
  TGI: 51.4 µM
OVCAR-3 ovarian
  TGI: 58.4 µM
MALME-3M melanoma
  TGI: > 100 µM
RXF-631 renal
  TGI: 97.2 µM
RPMI-8226 leukemia
  TGI: 87.1 µM
OVCAR-4 ovarian
  TGI: > 100 µM
CCRF-CEM leukemia
  TGI: > 100 µM
A549 NSCLC
  TGI: > 100 µM
DLD-1 colon
  TGI: > 100 µM
SF-539 CNS
  TGI: 38.9 µM
CAKI-1 renal
  TGI: > 100 µM
M14 melanoma
  TGI: > 100 µM
HL-60(TB) leukemia
  TGI: 61.6 µM
SNB-78 CNS
  TGI: > 100 µM
786-0 renal
  TGI: > 100 µM
EKVX NSCLC
  TGI: > 100 µM
MOLT-4 leukemia
  TGI: 68.3 µM
HCC-2998 colon
  TGI: 83.9 µM
SK-OV-3 ovarian
  TGI: > 100 µM
HCT-116 colon
  TGI: > 100 µM
SW-620 colon
  TGI: > 100 µM
HCT-15 colon
  TGI: > 100 µM
HOP-62 NSCLC
  TGI: > 100 µM
IGROV1 ovarian
  TGI: > 100 µM
NCI-H226 lung
  TGI: > 100 µM
ACHN renal
  TGI: > 100 µM
SK-MEL-28 melanoma
  TGI: > 100 µM
SF-268 CNS
  TGI: > 100 µM
